Legend:
Format in all cases: cell-based
[1] = tested on: BALB/3T3 (normal mouse fibroblasts); assay: In vitro cytotoxicity, SRB assay, normal BALB/3T3 fibroblasts; conditions: Mus musculus, BALB/3T3; normal cells; 72 h with compound, SRB; n/a = non-active compound; read-out: BALB/3T3 IC50
Hs294T (human melanoma) = assay: cells; conditions: for IC50: Homo sapiens, Hs 294T, 72 h with compound, SRB, n/a = non-active compound, read-out: Hs294T IC50; for Hs294T SI: selectivity coefficient vs normal BALB/3T3 cells
A375 (human melanoma) = assay: In vitro cytotoxicity, SRB assay, A375; conditions: for IC50: Homo sapiens, A-375, 72 h with compound, SRB, n/a = non-active compound, read-out: A375 IC50; for A375 SI: selectivity coefficient vs normal BALB/3T3 cells
[2] = tested on: PLC/PRF/5 (human liver cancer); assay: cells; conditions: for IC50: Homo sapiens, PLC-PRF-5, 72 h with compound, SRB, n/a = non-active compound, read-out: PLC/PRF/5 IC50; for PLC/PRF/5 SI: selectivity coefficient vs normal BALB/3T3 cells
[3] = tested on: PFSK-1 (malignant primitive neuroectodermal tumour); assay: In vitro cytotoxicity, SRB assay, PFSK-1; conditions: for IC50: Homo sapiens, PFSK-1, 72 h with compound, SRB, n/a = non-active compound, read-out: PFSK-1 IC50; for PFSK-1 SI: selectivity coefficient vs normal BALB/3T3 cells
[4] = tested on: MIA PaCa-2 (human pancreatic cancer); assay: cells; conditions: for IC50: Homo sapiens, MIA PaCa-2, 72 h with compound, SRB, n/a = non-active compound, read-out: MIA PaCa-2 IC50; for MIA PaCa-2 SI: selectivity coefficient vs normal BALB/3T3 cells
[5] = tested on: NCI-H23 (human lung cancer); assay: In vitro cytotoxicity, SRB assay, NCI-H23; conditions: for IC50: Homo sapiens, NCI-H23, 72 h with compound, SRB, n/a = non-active compound, read-out: NCI-H23 IC50; for NCI-H23 SI: selectivity coefficient vs normal BALB/3T3 cells
[6] = tested on: KG-1 (human acute myeloid leukaemia); assay: In vitro cytotoxicity, MTT assay, KG-1; conditions: for IC50: Homo sapiens, 72 h with compound, MTT, n/a = non-active compound; for KG-1 SI: selectivity coefficient vs normal BALB/3T3 cells
[7] = tested on: SNU-16 (human gastric cancer); assay: cells; conditions: for IC50: Homo sapiens, SNU-16, 72 h with compound, MTT, n/a = non-active compound, read-out: SNU-16 IC50; for SNU-16 SI: selectivity coefficient vs normal BALB/3T3 cells
[8] = tested on: A2780 (human ovarian cancer); assay: In vitro cytotoxicity, SRB assay, A2780; conditions: for IC50: Homo sapiens, A2780, 72 h with compound, SRB, n/a = non-active compound, read-out: A2780 IC50; for A2780 SI: selectivity coefficient vs normal BALB/3T3 cells
[9] = tested on: A2780Cis (cisplatin-resistant human ovarian cancer); assay: In vitro cytotoxicity, SRB assay, A2780Cis; conditions: for IC50: Homo sapiens, A2780cis, 72 h, read-out: A2780Cis IC50 (nM)

SMILES	IC50 [1] [nM]	IC50 (Hs294T (human melanoma)) [nM]	Hs294T SI (Hs294T (human melanoma))	IC50 (A375 (human melanoma)) [nM]	A375 SI (A375 (human melanoma))	IC50 [2] [nM]	PLC/PRF/5 SI [2]	IC50 [3] [nM]	PFSK-1 SI [3]	IC50 [4] [nM]	MIA PaCa-2 SI [4]	IC50 [5] [nM]	NCI-H23 SI [5]	IC50 [6] [nM]	KG-1 SI [6]	IC50 [7] [nM]	SNU-16 SI [7]	IC50 [8] [nM]	A2780 SI [8]	A2780Cis RI [9]	other results
CCCNC(=S)N[C@@H]1C=C[C@]2(O[C@H]([C@@H](CC)C(=O)[C@@H](C)[C@@H](O)[C@H](C)[C@@H]3O[C@@H]([C@@H](CC)C(=O)O)CC[C@@H]3C)[C@@H](C)C[C@H]2C)O[C@@]12CC[C@@](C)([C@H]1CC[C@](O)(CC)[C@H](C)O1)O2 [FLC-00349-1]	67.5	108	0.6	113	0.6	24.1	2.8	27.6	2.4	66.3	1.0	75.2	0.9	24.7	2.7	20.7	3.3	4.5	15.0	1.0	A2780Cis SI [9]: 14.8; IC50 [9]: 4.56 nM
CCCCCCCNC(=O)N[C@@H]1C=C[C@]2(O[C@H]([C@@H](CC)C(=O)[C@@H](C)[C@@H](O)[C@H](C)[C@@H]3O[C@@H]([C@@H](CC)C(=O)O)CC[C@@H]3C)[C@@H](C)C[C@H]2C)O[C@@]12CC[C@@](C)([C@H]1CC[C@](O)(CC)[C@H](C)O1)O2 [FLC-00350-1]	103	419	0.2	251	0.4	23	4.5	7.25	14.2	37.4	2.8	101	1.0	35.9	2.9	18.2	5.7	2.46	42.0	0.9	A2780Cis SI [9]: 44.9; IC50 [9]: 2.3 nM
CC[C@@H](C(=O)[C@@H](C)[C@@H](O)[C@H](C)[C@@H]1O[C@@H]([C@@H](CC)C(=O)O)CC[C@@H]1C)[C@H]1O[C@]2(C=C[C@@H](NC(=O)NC3CCCC3)[C@]3(CC[C@@](C)([C@H]4CC[C@](O)(CC)[C@H](C)O4)O3)O2)[C@H](C)C[C@@H]1C [FLC-00351-1]	66.6	360	0.2	104	0.6	22.3	3.0	10.7	6.2	22	3.0	112	0.6	23.7	2.8	24.5	2.7	0.45	148.7	1.2	A2780Cis SI [9]: 125.6; IC50 [9]: 0.53 nM
CCOC(=O)CNC(=S)N[C@@H]1C=C[C@]2(O[C@H]([C@@H](CC)C(=O)[C@@H](C)[C@@H](O)[C@H](C)[C@@H]3O[C@@H]([C@@H](CC)C(=O)O)CC[C@@H]3C)[C@@H](C)C[C@H]2C)O[C@@]12CC[C@@](C)([C@H]1CC[C@](O)(CC)[C@H](C)O1)O2 [FLC-00352-1]	115	416	0.3	459	0.3	32.9	3.5	45.2	2.5	50.9	2.3	234	0.5	30	3.8	52.8	2.2	2.14	53.8	1.8	A2780Cis SI [9]: 30.4; IC50 [9]: 3.77 nM
C=CCNC(=O)N[C@@H]1C=C[C@]2(O[C@H]([C@@H](CC)C(=O)[C@@H](C)[C@@H](O)[C@H](C)[C@@H]3O[C@@H]([C@@H](CC)C(=O)O)CC[C@@H]3C)[C@@H](C)C[C@H]2C)O[C@@]12CC[C@@](C)([C@H]1CC[C@](O)(CC)[C@H](C)O1)O2 [FLC-00353-1]	227	612	0.4	107	2.1	31.5	7.2	13.4	16.9	28.9	7.8	410	0.6	34.3	6.6	88.6	2.6	1.14	199.8	1.1	A2780Cis SI [9]: 180.6; IC50 [9]: 1.26 nM
CCNC(=O)N[C@@H]1C=C[C@]2(O[C@H]([C@@H](CC)C(=O)[C@@H](C)[C@@H](O)[C@H](C)[C@@H]3O[C@@H]([C@@H](CC)C(=O)O)CC[C@@H]3C)[C@@H](C)C[C@H]2C)O[C@@]12CC[C@@](C)([C@H]1CC[C@](O)(CC)[C@H](C)O1)O2 [FLC-00358-1]	223	1640	0.1	208	1.1	52.8	4.2	32.3	6.9	45.6	4.9	113	2.0	67.7	3.3	67.9	3.3	3.32	67.0	0.7	A2780Cis SI [9]: 98.1; IC50 [9]: 2.27 nM
CC[C@@H](C(=O)[C@@H](C)[C@@H](O)[C@H](C)[C@@H]1O[C@@H]([C@@H](CC)C(=O)O)CC[C@@H]1C)[C@H]1O[C@]2(C=C[C@@H](NC(=O)Nc3ccc(F)cc3F)[C@]3(CC[C@@](C)([C@H]4CC[C@](O)(CC)[C@H](C)O4)O3)O2)[C@H](C)C[C@@H]1C [FLC-00359-1]	73	212	0.3	228	0.3	38.6	1.9	19.4	3.8	37.7	1.9	148	0.5	13.1	5.6	9.57	7.6	1.62	45.1	0.7	A2780Cis SI [9]: 65.3; IC50 [9]: 1.12 nM
CC[C@@H](C(=O)[C@@H](C)[C@@H](O)[C@H](C)[C@@H]1O[C@@H]([C@@H](CC)C(=O)O)CC[C@@H]1C)[C@H]1O[C@]2(C=C[C@@H](NC(=O)NCCc3ccccc3)[C@]3(CC[C@@](C)([C@H]4CC[C@](O)(CC)[C@H](C)O4)O3)O2)[C@H](C)C[C@@H]1C [FLC-00362-1]	153	473	0.3	281	0.5	32	4.8	38.4	4.0	73.8	2.1	62.4	2.5	36.8	4.2	17	9.0	11.3	13.6	1.1	A2780Cis SI [9]: 12.9; IC50 [9]: 11.9 nM
CC[C@@H](C(=O)[C@@H](C)[C@@H](O)[C@H](C)[C@@H]1O[C@@H]([C@@H](CC)C(=O)O)CC[C@@H]1C)[C@H]1O[C@]2(C=C[C@@H](NC(=O)Nc3ccc(F)cc3)[C@]3(CC[C@@](C)([C@H]4CC[C@](O)(CC)[C@H](C)O4)O3)O2)[C@H](C)C[C@@H]1C [FLC-00363-1]	62.2	27.3	2.3	37.3	1.7	13	4.8	4.06	15.3	19.3	3.2	2.78	22.4	11.7	5.3	4.46	14.0	2	31.1	0.7	A2780Cis SI [9]: 44.3; IC50 [9]: 1.41 nM
